Test system: virus de Friend
Assay: Survival of mice infected with Friend virus
Assay type: in vivo, souris DBA/2
From the text: Dans d'autres essais, le virus a été maintenu par passages successif intrapéritonéaux chez la souris DBA/2. Cet entretien a été fait à partir de la rate de l'animal tous les 21 jours. L'activité du DAH a été évaluée en comparant les durées de survie des animaux à qui est injecté le virus, avec ou sans DAH. Le traitement a commencé trois jours après l'infection virale car on considère qu'il faut ce laps de temps pour qu'il y ait des séquences du virus dans le génome des précurseurs érythroïdes de la souris infectée. Après avoir fait varier le nombre d'injections journalières et la durée du traitement pour une dose donnée, il a été établi que 3 injections de 1g/kg/dose de DAH durant les 10 premiers jours et 2 injections de 1g/kg/dose de DAH pendant les 20 jours suivants, produisent un T/C de 239 %. Les résultats sont rapportés dans le tableau suivant : Tableau 2

## N[C@@H](CC(=O)NO)C(=O)O [DAH, D-acide aspartique β-hydroxamate]
1 g/kg x 3/j J 1-10 then x 2/j J 11-30
  Nombre d'animaux survivants: 5/10
1 g/kg x 3/j J 1-10 then x 2/j J 11-30, T/C = survival time treated/controls
  T/Cx100: 239,86%
1 g/kg x 3/j, J 1-10
  Nombre d'animaux survivants: 0/10
  T/Cx100: 193%
